According to patent US7947253B2, “Perturbed membrane-binding compounds and methods of using the same” (Aposense Ltd., priority 2004, dated 2011):

Experiments:
[1] = test system: HeLa S3 cells undergoing apoptosis; experiment: Fluorescent microscopy of binding to cultured HeLa cells undergoing apoptosis; type: cell-based; details: aged HeLa culture, fluorescence, FIG. 3
Procedure: HeLa S3 cells (ATCC CCL-2.2) were grown in Dulbecco's modified Eagle's medium (DMEM), supplemented with 2 mM of L-glutamine; 100 units/ml of penicillin; 100 μg/ml of streptomycin; 12.5 units/ml of nystatin and 10% of fetal calf serum (FCS). Cells were seeded at a density of 5×10^6 cells/plate, on a […] culture plates, in a volume of 10 ml, and were allowed to age by incubating the culture for 96 hours without exchange of the growth-medium. As a result, a marked percentage of the cells became apoptotic. Cells were harvested using a cell scraper, separated to single cells by passage through a syringe with a 18 G needle, and re-suspended at a density of 10^6 cells/ml in PBS buffer at pH=7.4. As was shown before NST 203 including a dansylamide group which enables the visualization of the fluorescence of a single cell.

[2] = test system: Jurkat cells undergoing apoptosis induced by CD95; experiment: Binding of tritium-labeled compounds to cultured Jurkat cells undergoing apoptosis induced by CD95; type: cell-based, human
Procedure: Cultured Jurkat cells (human adult T cell leukemia cells) were grown in suspension in RPMI medium (Beit-Haemek, Israel), supplemented with 10% fetal calf serum (FCS), 2 mM of L-glutamide, 1 mM of sodium pyruvate, 1 mM HEPES and antibiotics (100 units/ml penicilin; 100 μg/ml streptomycin and 12.5 units/ml of nystatin). Prior to induction of apoptosis, medium was replaced with HBS buffer (10 mM HEPES; 140 mM NaCl, 1 mM CaCl). Apoptosis was then triggered by treatment with CD95 (0.1 ug/10^7 cells/ml). As a result, a marked percentage of the cells became apoptotic. Non-treated cells served as control. Both control cells and apoptotic cells were then incubated for 40 minutes at room temperature followed by 30 minutes on ice with (2 μCi/10^7 cells/0.5 ml) tritium-labeled NST 200 and NST 205.
After washing the cells twice, 1 ml of SOLVABLE™ reagent (GNE9100, Packard Biosciences) was added to the pellet. Following one hour of incubation at 60° C., the extracts were transferred into glass scintillation vials and 10 ml of scintillation liquid (Ultima gold 6013329, Packard Biosciences) was added to each vial. The radioactivity was counted after 1 hour of cooling to room temperature and dark adaptation. The radioactive values were calculated and presented in percents of total added radiolabeled NST 200 and NST 205

colon carcinoma tumors [3] = experiment: Autoradiography of response to chemotherapy in a mouse model of colon carcinoma; type: in vivo, Balb/c male mice; details: 4 h after i.v. injection
Procedure: Colon carcinoma model was established in the abdomen of Balb/c male mice. At day 12-14 when tumor size was […] in diameter, the uptake of NST200 into tumors was measured following treatment of colon carcinoma tumors with i.v. injection of two doses of doxorubicin (20 mg/kg, 72 hours apart). Fourty-eight hours after the chemotherapy, both the control non-treated and the chemotherapy-treated animals were injected intravenously with and radio-labeled NST200 (80 μCi/animal) Four hours later, the animals were sacrificed. 10 μm frozen sections were prepared, air-dried and exposed to a tritium sensitive film. The film was exposed for a duration of 7 weeks, developed and analyzed by densitometny measurement. Measurement of ^3H-DDC densities in optical density/mm^2, […] was assessed by TINA software. Signals were translated according to a Microscale autoradiography standards and expressed in nCi/mg units.

[4] = test system: Murine colon carcinoma cells (CT-26) tumors; experiment: Uptake into colon carcinoma tumors: effect of chemotherapy (scintillation counting); type: in vivo, Balb/C mice
Procedure: Murine colon carcinoma cells (CT-26) (ATCC CRL-2638) were maintained in RPMI (Gibco, UK), 2 mM of L-glutamine; 100 units/ml of penicillin; 100 μg/ml of streptomycine; 12.5 units/ml nystatin; and 10% heated inactivation FCS. Studies were carried out in adult male Balb/C mice 8-10 weeks old (weighting 20-25gr).
Cells were trypsinized, washed twice with HBS (140 mM NaCl; […], PH 7.4) and than centrifuged (5 min, 1000 rpm, 4° C.) and concentrated into 2×10^6 cells/ml in a mixture of (2%) methyl cellulose and saline (1:3). A volume of 0.2 ml of the above solution (containing 4×10^5 cells/dose) was injected subcutaneously into the mice abdomen in both sides while mice were anaesthetized. Anaesthetic stock solution was prepared from 0.85 ml Ketamine (100 mg/ml)+0.15 ml Xilazine (2%) diluted 1:10. 0.1 ml of diluted solution was injected (i.p.) per 10 gr body weight.
Mice were examined daily for palpable tumor formation. 7-10 days after tumor injection small tumors were visible.
Uptake of ^3H-NST200 into tumors was measured following treatment of colon carcinoma tumors with i.v. injection of two doses of doxorubicin (20 mg/kg, 72 hours apart). 48 hours after the second dose, the mice were intravenously injected with ^3H-NST200 (10 μCi/animal). Four hours later, tumors were collected, weighed and the tissue was processed: tumor lysis was performed using SOLVABLE™ reagent (GNE9100, Packard Bioscience) in a ratio of one ml reagent per 150 mg of tumor tissue at 60° C. in 20 ml scintillation glass vials. Following 2-4 hours, one ml from each tissue extract was transferred to a glass scintillation vial. To reduce color quenching problems, samples were treated with 0.4 ml of 30% H2O2 in the presence of 0.066M EDTA. […] The vials were incubated for 1 hr at RT, and than analyzed in a β-counter (TRI-CARB 2100TR, liquid scintillation analyzer, Packard Bioscience). All samples were measured in triplicates Values of percents of injected dose (% ID/g tissue) were calculated for each sample.

[5] = test system: colon carcinoma tumor vs other organs; experiment: Biodistribution in colon carcinoma tumor bearing mice; type: in vivo, Balb/c male mice; details: doxorubicin treated mice, 4 h after injection, table of FIG. 7
Procedure: Colon carcinoma model was established in the abdomen of Balb/c male mice, as described in previous example, and ^3H-NST200 (10 μCi) was injected to animals treated with doxorubicin. Four hours later, the animals were sacrificed and various organs/tissues were collected and processed, to determine the accumulation of ^3H-NST200 within them. The uptake in each organ was expressed as % of the injected dose (ID), and the ratio between the uptake in the tumor and other organs was calculated, as shown in the table attached hereto as FIG. 7.

colon carcinoma tumors [6] = experiment: Uptake into treated colon carcinoma tumors compared with tumor volume; type: in vivo, Balb/c male mice
Procedure: Colon carcinoma model was established in the abdomen of Balb/c male mice, as described in Example No. 10. At day 12-14 when tumor size was 6-8 mm in diameter, mice were injected intravenously with doxorubicin. A total of 2 doses of doxorubicin were given, separated by 3 days interval (each dose was 20 mg/Kg).
Two days after the second doxorubicin injection, mice were injected i.v. with 10 μCi of ^3H-NST200 in a volume of 0.2 ml saline. Four hours following ^3H-NST200 injection, mice were sacrificed by pental overdosing. Tumors were collected in ependorff tubes, weighted and frozen in −20° C.
Tumor lysis was performed using SOLVABLE™ reagent (GNE9100, Packard Bioscience) in a ratio of 1 ml reagent per 150 mg of tumor tissue at 60° C. in 20 ml scintillation glass vials. Following 2-4 hours, 1 ml from each tissue extract was transferred to a glass scintillation vial. To reduce color quenching problems, samples were treated with 0.4 ml of 30% H2O2 in the presence of 0.066M EDTA. […] The vials were incubated for 1 hr at RT, and than analyzed in a β-counter (TRI-CARB 2100TR, liquid scintillation analyzer, Packard Bioscience). Values of percents of injected dose (% ID/g tissue) were calculated for each sample. […] The uptake values of NST200 after each dose were correlated with tumor volume, which were calculated by the formula (assuming spherical tumors) V=πD^3/6, where D is the average tumor diameter.

[7] = test system: brain regions of apoptotic/necrotic cell death; experiment: Autoradiography of apoptotic damage following middle cerebral artery occlusion in mice; type: in vivo, Balb/C mice
Procedure: p-MCA was induced through a subtemporal approach in Balb/C mice with an outcome of a pronounced ischemic damage. Twenty-two hours after p-MCA, the animal's neurological score was assessed (from 0-no clinical signs to 3-hemiplegia, circling and catatonia) and radio-labeled NST200 (80 μCi/animal) was intravenously injected for successive 2 h before sacrificing the animals. 10 μm frozen sections were prepared, air-dried and exposed to a tritium sensitive film (Hyperfilm-3h, RPN535B Amersharn-Pharmacia, Eu). The film was exposed for a duration of 7 weeks, developed (GBX Developer & Fixer, Kodak, USA) and analyzed by densitometry measurement. Measurement of ^3H-DDC densities in optical density/mm^2, in the ischemic core vs. the contralateral hemisphere signal was assessed by TINA software. Signals were translated according to a Microscale autoradiography standards (RPN510 Amersham-Pharmacia, Eu) and expressed in nCi/mg units.

[8] = test system: brain and spinal cord white matter in EAE; experiment: Autoradiography imaging of experimental autoimmune encephalomyelitis (EAE); type: in vivo, C3H.SW/C57/bl female mice; details: FIG. 12
[9] = test system: kidney regions of apoptotic/necrotic cell death; experiment: Autoradiography of rat renal ischemia-reperfusion; type: in vivo, rats
[10] = test system: injured regions within the outer medulla of the kidney; experiment: Autoradiography in a rat model of radiocontrast-induced acute distal tubular necrosis; type: in vivo, rats; details: 24 h after insult, 1 h after i.v. injection, FIG. 11
Procedure: Nephropathy with selective medullary hypoxic tubular damage was induced by the combined administration of indomethacin (Sigma Chemical Co.), 10 mg/kg, i.v., N^ωnitro-L-arginine methyl ester (L-NAME, Sigma Chemical Co.), 10 mg/kg, i.v., and radiocontrast agent sodium-iothalamate 80% (Angio-Conray, Mallinckrodt Inc), 6 mL/kg, i.a. Additional rats injected with vehicles served as control. Twenty-four hours after insult, animals, both control and experimental were intravenously injected with 100 μCi of ^3H-NST205 and one hour later kidneys were excised and frozen in liquid nitrogen.

CCCCNS(=O)(=O)c1cccc2c(N(C)C)cccc12 [BDA, n-butyl-dansylamide]
selectivity of binding to apoptotic vs non-apoptotic cells [1]: did not manifest this selectivity

CCCCC(C)(C(=O)O)C(=O)O [NST200]
uptake in apoptotic cells compared to the non-apoptotic cells ([2]; tritium-labeled compound, CD95-induced apoptosis, FIG. 2A): over 8 fold | uptake in tumors upon induction of cell death via chemotherapy (autoradiography) (colon carcinoma tumors [3]; 48 h after two doses of doxorubicin, FIGS. 5B and C): dramatic increase | uptake in non-treated tumors (autoradiography) (colon carcinoma tumors [3]; control non-treated mice, FIG. 5A): no uptake | mean value of uptake in the treated group ([4]; doxorubicin treated tumors, 48 hr after second dose, 4 h after i.v. injection): 1.28 % ID/gr | mean uptake of treated group relative to mean value of the control group ([4]; doxorubicin treated vs non treated tumors): 12.1 fold | increase in uptake in some treated tumors as compared with the control group ([4]; some chemotherapy-treated tumors): 40-50 fold | ratio of uptake in the tumor vs. all organs [5]: > 1 | increase in uptake in tumors after 2 doses of doxorubicin (colon carcinoma tumors [6]; two days after second dose, 4 h after i.v. injection, vs control non-treated tumors): 18.5 fold | targeting of injury within regions of apoptotic/necrotic cell death (autoradiography) ([7]; 22 h after p-MCA, i.v., 2 h, FIG. 9): specificity of targeting the injury | uptake in damaged brain hemisphere compared to the contralateral non-damaged hemisphere ([7]; tritium-labeled compound): markedly higher levels of uptake | radio-ligand accumulation in brain vs control non-immunized mouse ([8]; coronal brain sections, 1 h after i.v. injection): excess of radio-ligand accumulation in the whole brain | accumulation at the spinal cord level vs control untreated animal ([8]; longitudinal spinal cord section): impressive accumulation

CCCCC(CCCF)(C(=O)O)C(=O)O [NST205, 2-butyl-2(3-fluoropropyl)-malonic acid]
effect of adding caspase inhibitor ZVAD on the higher uptake in apoptotic cells ([2]; CD95, plus ZVAD, FIG. 2B): completely reversed | uptake in apoptotic cells in comparison to the non apoptotic cells ([2]; tritium-labeled compound, CD95-induced apoptosis, FIG. 2B): higher uptake | targeting of injury within regions of apoptotic/necrotic cell death in ischemic kidney (autoradiography) ([9]; 45 minutes ischemia, 24 hours reperfusion, 1 h after i.v. injection, FIG. 10): specificity of targeting the injury | uptake into contralateral kidney ([9]; contralateral untreated kidney of same animal): no ^3H-NST205 uptake into contralateral kidney | homing in kidney (autoradiography) [10]: primarily restricted to injured regions within the outer medulla

COc1cccc2c1C(=O)c1c(O)c3c(c(O)c1C2=O)C[C@@](O)(C(=O)CO)C[C@@H]3O[C@H]1C[C@H](N)[C@H](O)[C@H](C)O1 [doxorubicin, reference compound]
increase in tumor volume as compared to control non-treated tumors (colon carcinoma tumors [6]; 2 doses of 20 mg/Kg i.v., 5 days, controls collected 5 days earlier, non-significant): 50%
